Read-outs that look alike come from different tables or passages of the source.
Experiments:
[1] = Transport of flavonoids in HLF across Caco-2 cell monolayer; type: in vitro ADME; details: human, Caco-2, Papp, Caco-2, range over HLF 50, 100 and 200 µg·mL^−1
rat intestine = type: in vivo; details: for detection in the effluent fluid: rat single-pass intestinal perfusion after HLF via jugular vein
[2] = Pharmacokinetics of HLF via oral administration; type: in vivo, rat; details: after intragastric administration of HLF
[3] = In situ recirculating intestinal perfusion; type: in vivo; details: rat, other: in situ recirculating intestinal perfusion, absorption potential (Papp), rat small intestine, different concentrations of HLF
[4] = cited from earlier work
intestinal microflora = test: Metabolism of HLF by intestinal microflora; type: in vitro ADME, rat; details: anaerobic incubation 37 °C, up to 48 h
rat small intestine = test: In situ recirculating intestinal perfusion; type: in vivo; details: different concentrations of HLF

SMILES: O=c1cc(-c2ccc(O)cc2)oc2c([C@@H]3O[C@H](CO)[C@@H](O)[C@H](O)[C@H]3O)c(O)cc(O)c12 [VIT, vitexin]
- Papp [1]: 0.218 to 0.383 ×10⁻⁶ cm/s
- reduction of cumulative efflux amount (rat intestine; in the presence of VP vs absence): 47.63%
- detection in the effluent fluid (rat intestine): detected
- detection in the rat plasma and bile [2]: cannot be detected
- Papp at 3 h [3]: 0.031 to 0.141 ×10⁻⁶ cm/s

SMILES: C[C@@H]1O[C@@H](OC[C@H]2O[C@@H](Oc3c(-c4ccc(O)c(O)c4)oc4cc(O)cc(O)c4c3=O)[C@H](O)[C@@H](O)[C@@H]2O)[C@H](O)[C@H](O)[C@H]1O [RUT, rutin]
- Papp ([4]; other study): 1.03 ± 0.13 ×10^−5 cm·sec^−1
- Papp [1]: 0.228 to 0.304 ×10⁻⁶ cm/s
- detection in the effluent fluid (rat intestine): hardly detected
- metabolism by the intestinal microflora (intestinal microflora): metabolized to QUE
- detection in the rat plasma and bile [2]: cannot be detected
- Papp at 3 h [3]: 0.031 to 0.141 ×10⁻⁶ cm/s

SMILES: O=c1c(O[C@@H]2O[C@H](CO)[C@H](O)[C@H](O)[C@H]2O)c(-c2ccc(O)c(O)c2)oc2cc(O)cc(O)c12 [HP, hyperoside]
- Papp ([4]; previous study): 1.87 ± 1.11 ×10^−7 cm·sec^−1
- Papp [1]: 0.226 to 0.383 ×10⁻⁶ cm/s
- detection in the effluent fluid (rat intestine): hardly detected
- metabolism by the intestinal microflora (intestinal microflora): metabolized to QUE
- detection in the rat plasma and bile [2]: cannot be detected
- absorption extent (A) (rat small intestine): 11.40 ± 0.98 %·h^−1
- absorption potential (Papp) (rat small intestine): 4.27 ± 0.36 ×10^−7 cm·sec^−1
- Papp at 3 h [3]: 0.255 to 0.427 ×10⁻⁶ cm/s
